Article PMC10987949, “Inhibition of HIV-1 release by ADAM metalloproteinase inhibitors” (Frontiers in Microbiology, 2024)
“Also recorded” adds a separate entry of the source.

Columns and labels:
[1] = target: T1, recombinant ADAM10 (Homo sapiens, UniProt O14672); experiment: Cleavage of fluorogenic CD62L peptide by recombinant ADAM10; type: biochemical; details: 2 μM compound
T1 construct: purchased R&D systems, Inc
T1 sequence (O14672 214-748): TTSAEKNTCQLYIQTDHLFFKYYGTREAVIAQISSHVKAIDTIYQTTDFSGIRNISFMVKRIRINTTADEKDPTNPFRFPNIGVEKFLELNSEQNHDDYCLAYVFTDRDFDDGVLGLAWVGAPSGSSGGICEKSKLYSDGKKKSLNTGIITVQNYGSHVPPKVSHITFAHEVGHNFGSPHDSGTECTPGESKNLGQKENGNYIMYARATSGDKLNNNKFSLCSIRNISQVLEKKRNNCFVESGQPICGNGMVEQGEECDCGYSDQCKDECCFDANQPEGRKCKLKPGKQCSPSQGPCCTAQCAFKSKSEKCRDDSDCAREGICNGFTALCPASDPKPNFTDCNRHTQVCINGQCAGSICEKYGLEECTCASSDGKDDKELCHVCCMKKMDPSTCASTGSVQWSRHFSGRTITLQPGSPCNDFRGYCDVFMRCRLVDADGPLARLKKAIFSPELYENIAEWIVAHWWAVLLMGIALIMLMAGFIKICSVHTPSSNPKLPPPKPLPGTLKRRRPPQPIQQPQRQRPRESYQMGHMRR
Description: A fluorescence based enzymatic assay was used to measure the cleavage of fluorogenic TNF-α and L-selectin (CD62L) peptides by either recombinant ADAMs or PBMC from healthy donors. The fluorogenic substrate, synthesized by Biomatik^3, was a Dabcyl (4-(4-dimethylaminophenylazo)benzoyl)- and Edans (5-[(2-aminoethyl)amino]naphthalene-1-sulfonic acid)- conjugated 12 amino acid peptide: Dabcyl-[…]-Edans that corresponds to the extracellular membrane proximal region of CD62L. The fluorescence of the Edans group is quenched by the Dabcyl group in the intact substrate and the cleavage of the CD62L substrate peptide results in a fluorescence emission at 490 nm. The cleavage of fluorogenic TNF-α peptide (ES003, R &D systems, Inc) was detected at emission of 405 nm. The cleavage was measured in a kinetic assay every 3 min for 4 h in black 96-well plates using a Synergy_h1 fluorescent plate reader (BioTek) with 340 nm excitation and 490 nm emission wavelengths. For cleavage using recombinant ADAMs, each enzymatic reaction contained 50–200 ng of recombinant ADAM17 or 10 (R&D systems, Inc) mixed with 5–10 μM fluorogenic TNFα peptide ES003 (R&D systems, Inc) or CD62L peptide with or without indicated inhibitors in 100 μL assay buffer of 25 mM Tris at pH 9.0, 2.5 μM ZnCl2, and 0.005% Brij-35 (w/v). For cell-based cleavage of the fluorescent CD62L-peptide substrate, 300,000 PBMC at 2×10^6/ml density were mixed with 10 μM fluorescent CD62L-peptide and various inhibitors in a black 96-well plate in 150 μL culture media (RPMI 1640, 10% FBS, 1% penicillin streptomycin). PBMC were stimulated with anti-CD3 antibody for 2–4 days as described above.
Supplemental Figure 3. Inhibition of ADAM10 enzymatic activity by 14mb. A) chemical structure of 3-Cl-phenylpyrrolidine tartrate diamide analogs 14m and 15. B)Inhibition of recombinant ADAM10 cleavage of a fluorogenic CD62L peptide substrate in the presence of titrating concentrations of 14mb. The concentration-dependent enzymatic activities are fitted with non-linear regression of normalized inhibition response model. C). Inhibition of ADAM10 enzymatic cleavage of fluorogenic CD62L peptide by various […]

[2] = system: HIV-1BAL; experiment: HIV-1BAL infection of CD8-depleted PBMC, FACS (intracellular p24, CD4, CD62L); type: cell-based; details: for accumulation of infected CD4−/CD62L− T cells (loss of CD62L): HIV-1BAL infected cells; for effect on HIV-1BAL infection (intracellular p24): day 7 post infection, compounds at 100 μM, GI254023X at 250 μM
Description: The use of healthy human peripheral blood mononuclear cells (PBMC) is approved by the Department of Transfusion Medicine at the Clinical Center of National Institutes of Health. The use of PBMC from HIV-1 infected individuals for the study was approved under protocol #02-I-0202 by the Institutional Review Board (IRB) of National Institutes of Health with written informed consent from all donors. Peripheral blood mononuclear cells (PBMCs) from anonymous healthy donors were isolated by Ficoll-Paque gradient, and cultured in RPMI 1640 supplemented with 10% FBS, 1%Penicillin/streptomycin, 1% HEPES buffer and 20 U/mL IL-2 (culture media); and stimulated with 0.2 μg/mL anti-CD3 antibody (okt3) for 2 days. CD8^+ T cells were depleted prior to infection using the Stemcell CD8 positive selection kit according to manufacturer’s instructions. CD8-depleted PBMCs were plated at 2×10^6 cells/ml in 48-well plates in 1 mL culture media with various inhibitors for 60 min prior to the addition of ~80 TCID50 HIV-1BAL or HIV-1LAI. Inhibitors were replenished during media change every 3 days. The infections were proceeded with or without inhibitors for 6 days or otherwise specified number of days and then analyzed by FACS staining using fluorescent labeled CD4-BV510, CD62L-APC and CD3-PEC7 antibodies (BD Biosciences). Cells were then washed and permeabilized with CytoFix/CytoPerm (BD Biosciences) solution before intracellular staining for HIV p24 antigen using FITC conjugated anti-p24 antibody clone KC57 (Beckman Coulter, catalog 6604665). All assays were performed with cell viabilities >80%. Replication competent HIV-1 viruses were obtained from the NIH AIDS Reagent Program^4, and expanded by infecting activated CD8-depleted PBMCs, and TCID50 was determined by p24 ELISA.

[3] = target: T2, recombinant ADAM17 (Homo sapiens, UniProt P78536); experiment: Kinetic cleavage of fluorogenic TNF-α peptide ES003 by recombinant ADAM17; type: biochemical; details: for Ki: ES003 substrate, 4-h time point, non-linear regression, read-out: Inhibition constant Ki ADAM17
T2 construct: purchased R&D systems, Inc
T2 sequence (P78536 215-824): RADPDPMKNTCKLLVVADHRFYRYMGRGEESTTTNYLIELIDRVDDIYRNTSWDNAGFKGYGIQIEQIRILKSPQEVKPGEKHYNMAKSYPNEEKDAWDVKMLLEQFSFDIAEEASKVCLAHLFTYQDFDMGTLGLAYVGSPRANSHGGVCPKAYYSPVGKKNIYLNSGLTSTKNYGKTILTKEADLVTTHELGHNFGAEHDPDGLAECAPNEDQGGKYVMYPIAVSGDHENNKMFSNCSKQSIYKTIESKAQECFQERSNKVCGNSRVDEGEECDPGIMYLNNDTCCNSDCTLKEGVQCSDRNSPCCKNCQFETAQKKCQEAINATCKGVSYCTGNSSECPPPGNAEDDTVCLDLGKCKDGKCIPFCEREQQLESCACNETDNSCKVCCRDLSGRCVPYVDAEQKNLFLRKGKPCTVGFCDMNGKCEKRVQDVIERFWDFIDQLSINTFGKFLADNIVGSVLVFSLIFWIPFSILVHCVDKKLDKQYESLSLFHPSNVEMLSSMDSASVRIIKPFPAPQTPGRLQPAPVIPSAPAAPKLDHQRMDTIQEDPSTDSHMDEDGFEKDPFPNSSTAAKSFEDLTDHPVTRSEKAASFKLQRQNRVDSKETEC
Description: A fluorescence based enzymatic assay was used to measure the cleavage of fluorogenic TNF-α and L-selectin (CD62L) peptides by either recombinant ADAMs or PBMC from healthy donors. The fluorogenic substrate, synthesized by Biomatik^3, was a Dabcyl (4-(4-dimethylaminophenylazo)benzoyl)- and Edans (5-[(2-aminoethyl)amino]naphthalene-1-sulfonic acid)- conjugated 12 amino acid peptide: Dabcyl-[…]-Edans that corresponds to the extracellular membrane proximal region of CD62L. […] The cleavage was measured in a kinetic assay every 3 min for 4 h in black 96-well plates using a Synergy_h1 fluorescent plate reader (BioTek) with 340 nm excitation and 490 nm emission wavelengths. […] PBMC were stimulated with anti-CD3 antibody for 2–4 days as described above.
96-well plate with data recorded every 3 minutes for 4 hours using a Synergy_h1 fluorescent plate reader. Each enzymatic reaction contained 50 -200 ng
Figure 2B and 2C bar diagrams are generated using the
data points at 4 hour time point of the enzymatic cleavages.

Row | Structure (SMILES) | inhibition of ADAM10 cleavage of CD62L substrate peptide [1] | inhibition when added on day 3 and 5 after initiation of infection ([2]; 100μM, added day 0, 3, 5 post infection) | accumulation of infected CD4−/CD62L− T cells (loss of CD62L) [2] | effect on HIV-1BAL infection (intracellular p24) [2] | Ki [3] | concentrations inhibiting ADAM17 enzymatic activity [3] | inhibition of ADAM17 cleavage of ES003 ([3]; 2 μM compound)
1 | CNC(=O)[C@H](Cc1ccccc1)NC(=O)[C@H](CC(C)C)[C@H](CSc1cccs1)C(=O)NO [BB-94, Batimastat] | indistinguishable with that of fluorogenic peptide CD62L-only without the enzyme; also recorded: completely suppressed | progressive reduction in its inhibition | reduced the accumulation | inhibited HIV-1BAL infections | – | – | –
2 | CNC(=O)[C@@H](NC(=O)[C@H](CCCc1ccccc1)[C@H](C)N(O)C=O)C(C)(C)C [GI254023X] | completely suppressed | – | did not inhibit the accumulation | fail to significantly suppress the viral infections | 3.6 ± 0.38 µM | – | –
3 | CC1(C)SCCN(S(=O)(=O)c2ccc(Oc3ccncc3)cc2)[C@H]1C(=O)NO [prinomastat] | completely suppressed | – | reduced the accumulation | inhibited HIV-1BAL infections | 0.048 ± 0.036 µM | 20 to 50 nM | inhibited both ADAM10 and 17
